Assay results as given in PMC3853718 (Journal of Translational Medicine, 2013).
Read-outs that look alike come from different tables or passages of the source.

How the values were obtained:
patients = conditions: higher doses (up to 57 mg/m^2), once-every-21-days dosing schedule; cited from earlier work
mouse xenograft model = conditions: cited from earlier work
Rb phosphorylation = conditions: cited from earlier work
clinical = conditions: human, plasma
nude mice = conditions: once-daily administration for 7 days in nude mice; cited from earlier work
[1] = test system: subjects with advanced malignancies; conditions: human, in vivo, iv, 28 days

CCc1cnn2c(NCc3ccc[n+]([O-])c3)cc(N3CCCC[C@H]3CCO)nc12 [dinaciclib]
DLT (patients): Neutropenia | minimum effective dose, defined as >50% tumor growth inhibition (mouse xenograft model): 5 mg/kg | Rb phosphorylation in mouse skin biopsies (Rb phosphorylation; 2 hours post treatment): partial loss | Rb phosphorylation in mouse skin biopsies (Rb phosphorylation; 4 hours post treatment): complete loss of Rb phosphorylation | AUC(0-inf) (clinical; intravenous, 0.33 mg/m2): 43 ng·h/mL | AUC(0-t) (clinical; intravenous, 0.33 mg/m2): 42.8 ng·h/mL | Cmax (clinical; intravenous, 0.33 mg/m2): 11.1 ng/mL | Tmax (clinical; intravenous, 0.33 mg/m2): 1 h | AUC(0-inf) (clinical; intravenous, 0.66 mg/m2): 27.6 ng·h/mL | AUC(0-t) (clinical; intravenous, 0.66 mg/m2): 28.4 ng·h/mL | Cmax (clinical; intravenous, 0.66 mg/m2): 13.2 ng/mL | Tmax (clinical; intravenous, 0.66 mg/m2): 1 h | half-life (clinical; intravenous, 0.66 mg/m2): 1.67 h | AUC(0-inf) (clinical; intravenous, 1.32 mg/m2): 134 ng·h/mL | AUC(0-t) (clinical; intravenous, 1.32 mg/m2): 134 ng·h/mL | Cmax (clinical; intravenous, 1.32 mg/m2): 69.5 ng/mL | Tmax (clinical; intravenous, 1.32 mg/m2): 1 h | half-life (clinical; intravenous, 1.32 mg/m2): 3.38 h | AUC(0-inf) (clinical; intravenous, 1.85 mg/m2): 216 ng·h/mL | AUC(0-t) (clinical; intravenous, 1.85 mg/m2): 216 ng·h/mL | Cmax (clinical; intravenous, 1.85 mg/m2): 108 ng/mL | Tmax (clinical; intravenous, 1.85 mg/m2): 2 h | half-life (clinical; intravenous, 1.85 mg/m2): 2.66 h | Cmax (clinical; intravenous, 2.59 mg/m2): 104 ng/mL | Tmax (clinical; intravenous, 2.59 mg/m2): 1 h | half-life (clinical; intravenous, 2.59 mg/m2): 3.6 h | AUC(0-inf) (clinical; intravenous, 3.63 mg/m2): 431 ng·h/mL | AUC(0-t) (clinical; intravenous, 3.63 mg/m2): 405 ng·h/mL | Cmax (clinical; intravenous, 3.63 mg/m2): 163 ng/mL | Tmax (clinical; intravenous, 3.63 mg/m2): 1 h | half-life (clinical; intravenous, 3.63 mg/m2): 3.59 h | AUC(0-inf) (clinical; intravenous, 5.08 mg/m2): 327 ng·h/mL | AUC(0-t) (clinical; intravenous, 5.08 mg/m2): 327 ng·h/mL | Cmax (clinical; intravenous, 5.08 mg/m2): 173 ng/mL | Tmax (clinical; intravenous, 5.08 mg/m2): 2 h | half-life (clinical; intravenous, 5.08 mg/m2): 3.19 h | AUC(0-inf) (clinical; intravenous, 7.11 mg/m2): 543 ng·h/mL | AUC(0-t) (clinical; intravenous, 7.11 mg/m2): 542 ng·h/mL | Cmax (clinical; intravenous, 7.11 mg/m2): 250 ng/mL | Tmax (clinical; intravenous, 7.11 mg/m2): 2 h | half-life (clinical; intravenous, 7.11 mg/m2): 3.04 h | AUC(0-inf) (clinical; intravenous, 10 mg/m2): 687 ng·h/mL | AUC(0-t) (clinical; intravenous, 10 mg/m2): 694 ng·h/mL | Cmax (clinical; intravenous, 10 mg/m2): 319 ng/mL | Tmax (clinical; intravenous, 10 mg/m2): 2 h | half-life (clinical; intravenous, 10 mg/m2): 3.02 h | AUC(0-inf) (clinical; intravenous, 12 mg/m2): 1150 ng·h/mL | AUC(0-t) (clinical; intravenous, 12 mg/m2): 1150 ng·h/mL | Cmax (clinical; intravenous, 12 mg/m2): 525 ng/mL | Tmax (clinical; intravenous, 12 mg/m2): 2 h | half-life (clinical; intravenous, 12 mg/m2): 3.28 h | AUC(0-inf) (clinical; intravenous, 14 mg/m2): 2020 ng·h/mL | AUC(0-t) (clinical; intravenous, 14 mg/m2): 2020 ng·h/mL | Cmax (clinical; intravenous, 14 mg/m2): 821 ng/mL | Tmax (clinical; intravenous, 14 mg/m2): 1 h | half-life (clinical; intravenous, 14 mg/m2): 3.09 h | half-life (clinical; iv): 1.5 to 3.6 h | maximum tolerated dose, defined as the dose associated with 20% weight loss (nude mice): 60 mg/kg | recommended phase 2 dose (RP2D) [1]: 12 mg/m^2
